This is an account of results in patent US20210299268A1, “ANTIBODY-ALK5 INHIBITOR CONJUGATES AND THEIR USES” (Synthis Therapeutics, Inc., priority 2018, published 2021).

Like-named read-outs stand apart in the source and are kept apart here.

Experiment [1] deals with primary mouse CD4+ T cells. Nature of the experiment: MTS proliferation assay. In kind it is cell-based. The protocol:
Compounds A-D were tested to determine whether they could inhibit TGF-β signaling in primary mouse CD4^+ T cells.
Primary mouse CD4^+ T cells were isolated from the spleens of C57/B6 mice using the RoboSep™ cell isolation system (Stemcell Technologies). 0.5 μg/ml of hamster anti-mouse CD3e antibody (145-2C11; eBioscience) was coated onto a 96 well flat bottom plate overnight. 1×10^5 purified CD4^+ T cells were incubated with 1 μg/ml soluble hamster anti-mouse CD28 antibody (37.51, BD Biosciences), 1 nM TGF-β1 and 8-fold serial dilutions of Compounds A-D. After 72 hours, cell proliferation was measured using an MTS assay (Promega) in accordance with the manufacturer's instructions.
A general note: Tetrazolium assays rely on reduction of a dye to a coloured formazan, in cell work by metabolically active cells.

Experiment [2] relates to TGF-β-induced luciferase activity in HEK293T cells. Nature of the experiment: TGF-β-induced SMAD luciferase reporter assay in HEK293T cells. Type of experiment: cell-based, human. The note with it: HEK-293T. The protocol: Compounds A-D were tested to determine whether they could inhibit TGF-β-induced luciferase activity in HEK293T cells in vitro.
30,000 HEK293T cells were seeded in a 96 well white flat bottom plate overnight. The next day 100 ng of a SMAD luciferase reporter plasmid per well was transfected into the cells using lipofectamine for 24 hours. The next day cells were treated with Compounds A-D and 100 pM TGFβ for 24 hours. Luciferase activity was measured using the Dual-Glo® luciferase assay kit (Promega). The assay was run twice for Compounds A, B, and D, and three times for Compound C.

Another experiment addresses T1, ALK5 (Homo sapiens, UniProt P36897).
T1 sequence (P36897 34-503): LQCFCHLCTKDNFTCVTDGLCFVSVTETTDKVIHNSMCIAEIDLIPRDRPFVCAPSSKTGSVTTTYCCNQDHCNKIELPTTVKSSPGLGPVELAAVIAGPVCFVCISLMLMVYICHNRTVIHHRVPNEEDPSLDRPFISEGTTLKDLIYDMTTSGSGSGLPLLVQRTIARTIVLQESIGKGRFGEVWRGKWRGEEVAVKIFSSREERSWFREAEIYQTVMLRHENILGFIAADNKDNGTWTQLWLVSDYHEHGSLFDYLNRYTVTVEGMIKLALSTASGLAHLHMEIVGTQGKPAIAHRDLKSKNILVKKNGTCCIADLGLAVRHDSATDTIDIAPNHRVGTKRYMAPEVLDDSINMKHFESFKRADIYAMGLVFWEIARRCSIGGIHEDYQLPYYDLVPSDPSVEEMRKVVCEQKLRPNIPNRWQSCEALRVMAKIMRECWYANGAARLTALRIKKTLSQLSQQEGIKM
Nature of the experiment: recombinant kinase assays. In kind it is biochemical. An excerpt:
Compound N was compared to Compound C in a number of in vitro assays.

[3] abbreviates: Kinase = 1.5 nM, read-out: IC50 (nM) (Kinase = 1.5 nM).
[4] abbreviates: Kinase = 25 nM, read-out: IC50 (nM) (Kinase = 25 nM).
Setting [5] is: Morrison equat/ 5 uM ATP, read-out: Ki (nM) (Morrison equat/ 5 uM ATP).
Where [6] appears, read: Steady state equation, read-out: Ki (nM) (Steady state equation).

Regarding `Cc1cccc(-c2nc(N)sc2-c2ccc3ncccc3n2)n1` [Compound A, 4-(6-methylpyridin-2-yl)-5-(1,5-naphthyridin-2-yl)thiazol-2-amine], in experiment [1] (1 nM TGF-β1, 72 hours), the “effect on TGFβ-mediated inhibition of T cell proliferation” value (from here on “effect on TGFβ-mediated inhibition”) is on record as “did not show consistent effects” and the “Experiment 1 IC50 (nM)” value is “Value not obtained”.
For the molecule `CNCCOc1ccc(-c2cc(-c3c[nH]nc3-c3ccccn3)ccn2)cc1` [Compound B, N-methyl-2-(4-(4-(3-(pyridin-2-yl)-1H-pyrazol-4-yl)pyridin-2-yl)phenoxy)ethan-1-amine], the “effect on TGFβ-mediated inhibition” value in experiment [1] (1 nM TGF-β1, 72 hours) was “reversed TGFβ-mediated inhibition of T cell proliferation”.
For the molecule `CNCCOc1ccc(-c2cc(-c3c[nH]nc3-c3cccc(C)n3)ccn2)cc1` [Compound C, N-methyl-2-(4-(4-(3-(6-methylpyridin-2-yl)-1H-pyrazol-4-yl)pyridin-2-yl)phenoxy)ethan-1-amine], the IC50 in experiment [2] (summary value, human HEK cells, read-out: HEK Luciferase Assay) turned out to be 11.7 nM; in experiment [2] (Homo sapiens, Experiment 1, 100 pM TGFβ, 24 hours, read-out: Experiment 1 IC50), 10.1 nM; in experiment [1] (CD4+ T, summary value, mouse T cells, read-out: Mouse T cell proliferation assay), 26 nM; on ALK5 (setting [3]), 1.8 nM; on ALK5 (setting [4]), 10 nM. Besides, the “effect on TGFβ-mediated inhibition” value in experiment [1] (1 nM TGF-β1, 72 hours) is recorded as “reversed TGFβ-mediated inhibition of T cell proliferation”. In addition, the “fold more potent than Compound N in the recombinant assays” value on ALK5 stood at 10 fold. The figures for the Ki on ALK5 (setting [5]) and on ALK5 (setting [6]) were 0.11 nM and 2.25 nM, respectively.
As to `CCNC(=O)c1ccc2c(c1)NC(=O)/C2=C(\Nc1ccc(N(CCNC)S(C)(=O)=O)cc1)c1ccccc1` [Compound D, (Z)-N-ethyl-3-(((4-(N-(2-(methylamino)ethyl)methylsulfonamido)phenyl)amino)(phenyl)methylene)-2-oxoindoline-6-carboxamide], in experiment [1] (1 nM TGF-β1, 72 hours), the “effect on TGFβ-mediated inhibition” value is reported as “not obtained” and the “Experiment 1 IC50 (nM)” value is recorded as “Value not obtained”. Besides, the “Experiment 2 IC50 (nM)” value in experiment [1] (Experiment 2, 1 nM TGF-β1, 72 hours) is reported as “Value not obtained”.
Take `CCc1cc(-c2ccc3ncnc(N)c3c2)n(-c2cccc(C)n2)n1` [Compound N]: the IC50 at ALK5 (setting [3]) amounted to 12 nM; on ALK5 (setting [4]), 18 nM. Besides, the Ki at ALK5 (setting [5]) was 2.1 nM; on ALK5 (setting [6]) it was 18.4 nM.
